Test results: patent US11872216B2, “Pharmaceutical formulation comprising cineole and amoxicillin” (priority 2016, dated 2024)
Where “and” joins values, the source holds several entries; their conditions need not be identical. Equal entries are not always repeated.

Tests used:
[1] = tested on: amoxicillin-sensitive bacterial strain of Escherichia coli (ATCC 8739); experiment: Enzymatic test in agar medium (inhibition halos of disks with or without β-lactamase and cineole); type: cell-based
Method: (§1) This study is based on an enzymatic test first placing AMX combined with cineole in contact with ß-lactamases. The antibacterial activity of this antibiotic was then checked on an AMX-sensitive strain of Escherichia coli.
(§2) An amoxicillin-sensitive bacterial strain of Escherichia coli (ATCC 8739) was supplied by the national hygiene institute (INH-Rabat).
(§3) For each test performed, precultures of this E. coli strain of 24 h at 37° C. were prepared from this bacterial strain (frozen beforehand at −20° C.). From these precultures, bacterial inocula of 3.3×10^6 CFU/ml were prepared, adjusting the optical density to 540 nm.
Disks charged with antibiotics (diameter Ø=6 mm) were used for the enzymatic test in agar medium (AMX: amoxicillin and AMC: amoxicillin+clavulanic acid). They were supplied by the national hygiene institute (INH-Rabat). The AMX used for the enzymatic test in liquid medium was supplied by Sigma Aldrich (France).
The cineole was supplied by Sigma Aldrich (France). […]
Starting with a 24 h sensitive preculture of E. coli, eighteen Petri dishes of the agar MH medium were inoculated by surface plating. […] 10 μl of β-lactamase at 0.03 U/ml and 10 μl of cineole at 0.002 μl/ml were added to the surface of each of these three disks. • After incubation of the eight Petri dishes for 18 h at 37° C., the diameters of the inhibition halos were measured.

[2] = tested on: amoxicillin-sensitive bacterial strain of Escherichia coli (ATCC 8739); experiment: Enzymatic test in liquid medium (growth inhibition with or without β-lactamase and cineole); type: cell-based; conditions: for % inhibition of growth: AMX 6 μg/ml, cineole 0.002 μl/ml, β-lactamase 0.03 U/ml where present, 22 hours at 30° C.
Method: as §1, §2, §3
The ß-lactamase powder was supplied by Sigma Aldrich (France). It was dissolved according to the supplier's instructions, at 10 mg/ml in 0.1 M of Tris HCl at pH 7, containing 0.1% of gelatin. The ß-lactamase (0.03 U/ml) thus prepared was stored between 2 and 8° C.
The MIC of AMX at 100% with respect to the sensitive strain of Escherichia coli, determined via the microdilution method described previously, is of the order of 6 μg/ml.
Starting with a 24 h preculture of the sensitive strain of E. coli, bacterial inocula at 3.3×10^6 CFU/ml were prepared, adjusting the optical density to 540 nm.
Five control tubes and one test tube were prepared as described in table 6 (cf. below).
Tube no 1 corresponds to the sterility control of the medium. Tube no 2 corresponds to the positive control of viability of the bacterial strain. Tube no 3 corresponds to the control of sensitivity of the strain to AMX. Tube no 4 corresponds to the control of non-inhibition of bacterial growth with an infra-inhibitory concentration of cineole. Tube no 5 corresponds to the control of degradation of AMX in the presence of ß-lactamase. Tube no 6 corresponds to the test of the effect of cineole on amoxicillin inhibition by the β-lactamases.
The OD was measured at time t=0, and after 22 hours of incubation at 30° C. The percentage of inhibition was then calculated according to the formula described previously:
With ODT0=OD of the test tube at time t=0, ODT22=OD of the test tube after 22 h of incubation, ODC0=OD of the positive control tube at time t=0, ODC22=OD of the positive control tube after 22 h of incubation.

MIC ([2]; ATCC8739, sensitive strain of Escherichia coli, microdilution, read-out: MIC of AMX at 100%)	Compound	infra-inhibitory concentration (highest concentration without any inhibition) ([1]; microdilution method)	% inhibition of growth [2]	% inhibition of growth ([2]; listed as Cineole)	Diameters of the halos ([1]; disks AMX 20 μg, AMC 30 μg, β-lactamase 0.03 U/ml, cineole 0.002 μl/ml where added, 18 h at 37° C., 6 mm is the diameter of the disk, listed as AMX)
	CC12CCC(CC1)C(C)(C)O2 [cineole, 1,8-cineole]	~0.002 μl/ml	no growth inhibition	0% ± 0.0	
~6 µg/mL	CC1(C)S[C@@H]2[C@H](NC(=O)[C@H](N)c3ccc(O)cc3)C(=O)N2[C@H]1C(=O)O [amoxicillin, Amoxicillin]		100% ± 0.0		15 mm and 15 ± 1.0 mm
